Results: BigSolDB 2.1

NCC1(CC(=O)O)CCCCC1
solubility (mole fraction)
Settings | 283.15 K | 288.15 K | 293.15 K | 298.15 K | 303.15 K | 308.15 K | 313.15 K | 318.15 K | 323.15 K
in ethanol | 0.00134 | 0.00153 | 0.0017 | 0.00187 | 0.00224 | 0.00243 | 0.00267 | 0.003 | 0.00329
in methanol | 0.00718 | 0.00795 | 0.00878 | 0.00943 | 0.0107 | 0.0117 | 0.0127 | 0.014 | 0.016

NCC1(CC(=O)O)CCCCC1.O
in water
Settings | solubility (mole fraction)
283.15 K | 0.0093
288.15 K | 0.0106
293.15 K | 0.0116
298.15 K | 0.0124
303.15 K | 0.0137
308.15 K | 0.0152
313.15 K | 0.0168
318.15 K | 0.0189
323.15 K | 0.0222
